For 3 compounds, concentration, Activity and inhibition in vivo results are on record in ChEMBL document CHEMBL2157919, “Attenuation of collagen-induced arthritis by orally available imidazoline-based NF-κB inhibitors” (Bioorg Med Chem Lett, 2012).

The nature of series [1]: Plasma concentration in BALB/c mouse at 50 mg/kg, ip after 3 hrs. Type of series: ADME, organism-based. The arrangement: dose 50 mg/kg, route intraperitoneal.
The nature of series [2]: Plasma concentration in BALB/c mouse at 50 mg/kg, po after 3 hrs. Format: ADME, organism-based. Details: dose 50 mg/kg, route oral.
In series [3] the test system is Mus musculus. Briefly: Antiinflammatory activity in BALB/c mouse assessed as reduction of LPS-induced TNFalpha production in serum at 5 to 100 mg/kg, po administered 1 hr before LPS challenge measured after 3 hrs by EIA. Type of series: functional. The arrangement: scale not given: the % may be the effect or the level left. The following applies: dose mg/kg 5-100.

Series [4] has as its system Mus musculus. The experiment in a line: Antiarthritic activity in BALB/c mouse type 2 collagen antibody-induced arthritis model assessed as inhibition of disease burden at 50 mg/kg, ip qd for 14 days measured on day 20 relative to control. Format: functional. The following applies: route intraperitoneal.
In series [5] the test system is Mus musculus. Briefly: Antiarthritic activity in BALB/c mouse type 2 collagen antibody-induced arthritis model assessed as physiological disease-modifying affect at 50 mg/kg, ip qd for 14 days measured on day 20 relative to control. Type of series: functional, organism-based. Details: dose 50 mg/kg.
Series [6] has as its system Mus musculus. The experiment in a line: Antiinflammatory activity in BALB/c mouse assessed as reduction of LPS-induced TNFalpha production in serum at 5 mg/kg, po administered 1 hr before LPS challenge measured after 3 hrs by EIA relative to LPS treated control. Type of series: functional. The arrangement: scale not given: the % may be the effect or the level left.
Series [7] concerns Mus musculus. Briefly: Toxicity in BALB/c mouse type 2 collagen antibody-induced arthritis model assessed as change in body weight at 50 mg/kg, ip qd for 14 days measured on day 20. Type of series: organism-based. The arrangement: dose 50 mg/kg, route intraperitoneal. The following applies: in vivo, 336 h.
Series [8] is described as follows: Plasma concentration in BALB/c mouse at 400 mg/kg, po after 3 hrs. Format: ADME, organism-based. The arrangement: dose 400 mg/kg, route oral.
Series [9] can be described thus: Plasma concentration in BALB/c mouse at 200 mg/kg, po after 3 hrs. Type of series: ADME, organism-based. The arrangement: dose 200 mg/kg, route oral.
Series [10] deals with Mus musculus. The experiment in a line: Hepatotoxicity in BALB/c mouse assessed as increase in serum ALT level at 50 mg/kg, ip after 13 to 19 days. Format: toxicity, organism-based. Details: dose 50 mg/kg, route intraperitoneal. The following applies: in vivo.
The test system of series [11] is Mus musculus. The experiment in a line: Toxicity in BALB/c mouse type 2 collagen antibody-induced arthritis model assessed as change in body weight at 150 mg/kg, ip qd for 14 days measured on day 20. Format: organism-based. The arrangement: dose 150 mg/kg, route intraperitoneal. The following applies: in vivo, 336 h.
In series [12] the test system is Mus musculus. The experiment in a line: Antiarthritic activity in BALB/c mouse type 2 collagen antibody-induced arthritis model assessed as inhibition of disease burden at 150 mg/kg, ip qd for 14 days measured on day 20 relative to control. Type of series: functional. The settings on record: route intraperitoneal.
Series [13] concerns Mus musculus. Briefly: Antiarthritic activity in BALB/c mouse type 2 collagen antibody-induced arthritis model assessed as reduction of cartilage damage at 150 mg/kg, ip qd for 14 days measured on day 20 relative to control. Format: functional, organism-based. Details: dose 150 mg/kg.
Series [14] relates to Mus musculus. Briefly: Antiarthritic activity in BALB/c mouse type 2 collagen antibody-induced arthritis model assessed as reduction of bone resorption at 150 mg/kg, ip qd for 14 days measured on day 20 relative to control. Details: dose 150 mg/kg. Type of series: functional, organism-based.
For series [15], the system named is Mus musculus. The experiment in a line: Antiarthritic activity in BALB/c mouse type 2 collagen antibody-induced arthritis model assessed as reduction of inflammation at 150 mg/kg, ip qd for 14 days measured on day 20 relative to control. Format: functional, organism-based. Details: dose 150 mg/kg.
In series [16] the test system is Mus musculus. The experiment in a line: Antiarthritic activity in BALB/c mouse type 2 collagen antibody-induced arthritis model assessed as physiological disease-modifying affect at 150 mg/kg, ip qd for 14 days measured on day 20 relative to control. Type of series: functional, organism-based. The arrangement: dose 150 mg/kg.
Series [17] deals with Mus musculus. Briefly: Antiarthritic activity in BALB/c mouse type 2 collagen antibody-induced arthritis model assessed as reduction of pannus formation at 150 mg/kg, ip qd for 14 days measured on day 20 relative to control. The arrangement: dose 150 mg/kg. Type of series: functional, organism-based.
In series [18] the test system is Mus musculus. Briefly: Hepatotoxicity in BALB/c mouse assessed as increase in serum ALT level at 50 mg/kg, po after 6 hrs. Type of series: toxicity, organism-based. Details: dose 50 mg/kg, route oral. The settings on record: in vivo.
Series [19] deals with Mus musculus. The experiment in a line: Hepatotoxicity in BALB/c mouse assessed as increase in serum ALT level at 150 mg/kg, po after 6 hrs. Type of series: toxicity, organism-based. Details: dose 150 mg/kg, route oral. The following applies: in vivo.
The subject of series [20] is Mus musculus. The experiment in a line: Hepatotoxicity in BALB/c mouse assessed as increase in serum ALT level at 150 mg/kg, ip after 13 to 19 days. Type of series: toxicity, organism-based. The arrangement: dose 150 mg/kg, route intraperitoneal. The following applies: in vivo.
Series [21] deals with Mus musculus. The experiment in a line: Antiarthritic activity in BALB/c mouse type 2 collagen antibody-induced arthritis model assessed as reduction of exostosis at 150 mg/kg, ip qd for 14 days measured on day 20 relative to control. Format: functional, organism-based. Details: dose 150 mg/kg.
Series [22] deals with Mus musculus. The experiment in a line: Antiarthritic activity in BALB/c mouse type 2 collagen antibody-induced arthritis model assessed as physiological disease-modifying affect at 3 mg/kg, po qd for 14 days measured on day 20 relative to control. Format: functional, organism-based. The arrangement: dose 3 mg/kg.
For series [23], the system named is Mus musculus. The experiment in a line: Toxicity in BALB/c mouse type 2 collagen antibody-induced arthritis model assessed as change in body weight at 3 mg/kg, po qd for 14 days measured on day 20. Format: organism-based. Details: dose 3 mg/kg, route oral. The settings on record: in vivo, 336 h.
Series [24] concerns Mus musculus. Briefly: Antiarthritic activity in BALB/c mouse type 2 collagen antibody-induced arthritis model assessed as inhibition of disease burden at 3 mg/kg, po qd for 14 days measured on day 20 relative to control. Format: functional.

Calls of active or inactive are those of the source. The rule behind the calls is not given here.

Regarding `CCOC(=O)[C@]1(c2ccccc2)N=C(c2ccccc2)N(Cc2ccccc2)[C@@H]1c1ccccc1`, the concentration at 3 h was found to be 6 µM in series [1], 2 µM in [2], 9 µM in series [8] and 4 µM in series [9]. The Activity in the series with Mus musculus [3] is on record as 50%; in the series on Mus musculus [6], 50%; in the series with Mus musculus [7], “Non-toxic”. Further, in the series on Mus musculus [4], the inhibition in vivo at 50 mg/kg amounted to 67%. For the same compound, in the series with Mus musculus [5], the result was Active.
On to `CCOC(=O)C1(c2ccccc2)N=C(c2ccccc2)N(Cc2ccccc2)C1c1ccccc1` (racemic), for which the Activity result in the series on Mus musculus [10], in the series with Mus musculus [11], in the series with Mus musculus [18], in the series with Mus musculus [19] and with Mus musculus [20] was “Non-toxic” throughout. Moreover, the inhibition in vivo at 150 mg/kg in the series with Mus musculus [12] was determined as 94%. Also, the result with Mus musculus [13], in the series on Mus musculus [14], in the series with Mus musculus [15], with Mus musculus [16], in the series on Mus musculus [17] and in the series with Mus musculus [21] was Active.
Consider `C[C@@H]1C[C@H]2[C@@H]3CCC4=CC(=O)C=C[C@]4(C)[C@@]3(F)[C@@H](O)C[C@]2(C)[C@@]1(O)C(=O)CO` [DEXAMETHASONE], for which, in the series with Mus musculus [22], the outcome was Active. In the series with Mus musculus [23], the Activity entry is “Toxic”. Also, the inhibition in vivo at 3 mg/kg in the series with Mus musculus [24] was found to be 102%.
